In brackets after ≈: the same amount, converted by molar mass. One block for each molecule: values may come before it.
Columns and labels:
[1] = Octanol/water partition coefficient, logP of the compound; type: physicochemical
Plasmodium falciparum [2] = assay: Antimalarial activity against Plasmodium falciparum 3D7 assessed as reduction in parasite growth; type: functional, organism-based
[3] = Kinetic solubility of compound in 1-Octanol/PBS at pH 7.4 at 200 uM incubated for 2 hrs by shake flask method; type: physicochemical; conditions: read-out: Kinetic_solubility
Plasmodium falciparum [4] = assay: Antimalarial activity against Plasmodium falciparum NF54 assessed as parasite growth inhibition at 2 uM relative to control; type: functional; conditions: read-out: GI

SMILES: COc1ccc(-c2cncc(C(=O)NCC3CCN(CCN(C)C)CC3)c2)cc1
- logP ([1]; read-out: logP): 2.8

SMILES: COc1c(C2CCN(CCN3CCC(CNC(=O)c4ccc(-c5ccc(C#N)cc5)cc4)CC3)CC2)ccc2c1CCCC2
- XC50 (Plasmodium falciparum [2]): 445 nM

SMILES: Oc1cc(CN2CCC(O)(Cn3ccnc3)CC2)nc2c(Cl)cccc12
- XC50 (Plasmodium falciparum [2]): 882 nM

SMILES: CN1CCN(CCCCNC2CC3CCC(C2)N3Cc2ccccc2)CC1 (stereo unspecified)
- logP ([1]; read-out: logP): 3.1
- solubility kinetic at 2 h, 200 µM [3]: 200 µM (≈ 74.1 µg/mL)

SMILES: OC1(CCCNC2CCN(C3CC3)C(c3ccccc3)C2)CCC1 (stereo unspecified)
- inhibition of growth at 2 µM (Plasmodium falciparum [4]): -8%

SMILES: CN1CCC(Oc2ccc(NC(=O)c3cn4ccnc4s3)cn2)CC1
- logP ([1]; read-out: logP): 2
- solubility kinetic at 2 h, 200 µM [3]: 200 µM (≈ 71.5 µg/mL)

SMILES: CC1CCN(Cc2cccc(C(=O)NCc3ccc(F)c(-c4ccc(CN5CCN[C@H](C)C5)cc4)c3)c2)CC1
- XC50 (Plasmodium falciparum [2]): 1460 nM

SMILES: COc1ccc(CN2CCN(c3ccncc3C)CC2)cc1Cn1cccn1
- inhibition of growth at 2 µM (Plasmodium falciparum [4]): -15%

Other lines, results leading:

- logP [1]: 2.5
SMILES: O=C(NC1CCN(CCOc2ccc(Cl)cc2)CC1)c1c[nH]c2ccncc2c1=O

- logP ([1]; read-out: logP): 3.2
- solubility kinetic at 2 h, 200 µM [3]: 200 µM (≈ 66.9 µg/mL)
SMILES: c1ccc(-c2ccnc(C3CCN(CC45CNCC4C5)CC3)n2)cc1 (stereo unspecified)

- logP ([1]; read-out: logP): 3
SMILES: Cc1cnccc1N1CCCN(Cc2ccccc2OCCN2CCN(C)CC2)CC1

- logP ([1]; read-out: logP): 3.6
SMILES: Cc1c(CN2CCC(O)(Cn3ccnc3)CC2)[nH]c2c(Cl)cccc12

- logP ([1]; read-out: logP): 3.4
SMILES: CC1(N2CCC2)CCC(NCC2CCN(Cc3ccccc3)C2)CC1 (stereo unspecified)

— ChEMBL document CHEMBL5390311, “MAIP: An Open-Source Tool to Enrich High-Throughput Screening Output and Identify Novel, Druglike Molecules with Antimalarial Activity” (ACS Med Chem Lett, 2023)
